Common to all, as to test: biochemical
What all share (parameters): KINOMEscan competition binding panel (Eurofins DiscoverX), single concentration, % inhibition
Holding throughout (settings): read-out: 7 at 1 µM % inhibition

The target of one assay is T1, LKB1 (Homo sapiens, UniProt Q15831).
T1 construct: gene STK11
A digest of the protocol:
(§1)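 Kinome-wide profiling (KINOMEscan, >400 human kinases) was run at 1 µM compound.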

The next assay has as its target RET(V804M) (Homo sapiens, UniProt P07949, V804M). The gist of the method: as §1
The target of another assay is GRK3 (Homo sapiens, UniProt P35626). A digest of the protocol:
as §1

A further assay has as its target T2, CDC2L2 (Homo sapiens, UniProt Q9UQ88).
T2 construct: gene CDK11A
A digest of the protocol: as §1

The target in another assay is CAMKK2 (Homo sapiens, UniProt Q96RR4). The gist of the method: as §1
The target in the next assay is ULK1 (Homo sapiens, UniProt O75385). The gist of the method:
as §1

Assay [1] concerns the target T3, JAK1(JH1domain-catalytic) (Homo sapiens, UniProt P23458).
T3 construct: JH1domain-catalytic
A digest of the protocol:
as §1

The next assay addresses TESK1 (Homo sapiens, UniProt Q15569). A digest of the protocol:
as §1

The target of a further assay is T4, NIK (Homo sapiens, UniProt Q99558).
T4 construct: gene MAP3K14
The gist of the method: as §1

Another assay addresses MAPKAPK5 (Homo sapiens, UniProt Q8IW41). A digest of the protocol: as §1
For another assay, the target named is PIP5K1C (Homo sapiens, UniProt O60331). A digest of the protocol:
as §1

For a further assay, the target named is PRKCE (Homo sapiens, UniProt Q02156). The gist of the method:
as §1

The target of the next assay is TGFBR2 (Homo sapiens, UniProt P37173). A digest of the protocol: as §1
A further assay deals with ERBB4 (Homo sapiens, UniProt Q15303). A digest of the protocol: as §1
A further assay has as its target T5, LZK (Homo sapiens, UniProt O43283).
T5 construct: gene MAP3K13
A digest of the protocol:
as §1

For a further assay, the target named is ALK (Homo sapiens, UniProt Q9UM73). The gist of the method:
as §1

For assay [2], the target named is T6, JAK1(JH2domain-pseudokinase) (Homo sapiens, UniProt P23458).
T6 construct: JH2domain-pseudokinase
A digest of the protocol:
as §1

Another assay addresses CAMK1G (Homo sapiens, UniProt Q96NX5). A digest of the protocol: as §1
The next assay has as its target HIPK4 (Homo sapiens, UniProt Q8NE63). The gist of the method:
as §1

Assay [3] addresses T7, RSK3(Kin.Dom.2-C-terminal) (Homo sapiens, UniProt Q15349).
T7 construct: gene RPS6KA2; Kin.Dom.2-C-terminal
The gist of the method: as §1

The next assay has as its target T8, MST1 (Homo sapiens, UniProt Q13043).
T8 construct: gene STK4
The gist of the method:
as §1

Another assay addresses T9, MLK2 (Homo sapiens, UniProt Q02779).
T9 construct: gene MAP3K10
The gist of the method:
as §1

In a further assay the target is FLT3(ITD,D835V) (Homo sapiens, UniProt P36888, D835V/ITD). The gist of the method: as §1
Another assay addresses T10, ADCK3 (Homo sapiens, UniProt Q8NI60).
T10 construct: gene COQ8A
The gist of the method: as §1

Chain of ERBB4 (Q15303 whole entry): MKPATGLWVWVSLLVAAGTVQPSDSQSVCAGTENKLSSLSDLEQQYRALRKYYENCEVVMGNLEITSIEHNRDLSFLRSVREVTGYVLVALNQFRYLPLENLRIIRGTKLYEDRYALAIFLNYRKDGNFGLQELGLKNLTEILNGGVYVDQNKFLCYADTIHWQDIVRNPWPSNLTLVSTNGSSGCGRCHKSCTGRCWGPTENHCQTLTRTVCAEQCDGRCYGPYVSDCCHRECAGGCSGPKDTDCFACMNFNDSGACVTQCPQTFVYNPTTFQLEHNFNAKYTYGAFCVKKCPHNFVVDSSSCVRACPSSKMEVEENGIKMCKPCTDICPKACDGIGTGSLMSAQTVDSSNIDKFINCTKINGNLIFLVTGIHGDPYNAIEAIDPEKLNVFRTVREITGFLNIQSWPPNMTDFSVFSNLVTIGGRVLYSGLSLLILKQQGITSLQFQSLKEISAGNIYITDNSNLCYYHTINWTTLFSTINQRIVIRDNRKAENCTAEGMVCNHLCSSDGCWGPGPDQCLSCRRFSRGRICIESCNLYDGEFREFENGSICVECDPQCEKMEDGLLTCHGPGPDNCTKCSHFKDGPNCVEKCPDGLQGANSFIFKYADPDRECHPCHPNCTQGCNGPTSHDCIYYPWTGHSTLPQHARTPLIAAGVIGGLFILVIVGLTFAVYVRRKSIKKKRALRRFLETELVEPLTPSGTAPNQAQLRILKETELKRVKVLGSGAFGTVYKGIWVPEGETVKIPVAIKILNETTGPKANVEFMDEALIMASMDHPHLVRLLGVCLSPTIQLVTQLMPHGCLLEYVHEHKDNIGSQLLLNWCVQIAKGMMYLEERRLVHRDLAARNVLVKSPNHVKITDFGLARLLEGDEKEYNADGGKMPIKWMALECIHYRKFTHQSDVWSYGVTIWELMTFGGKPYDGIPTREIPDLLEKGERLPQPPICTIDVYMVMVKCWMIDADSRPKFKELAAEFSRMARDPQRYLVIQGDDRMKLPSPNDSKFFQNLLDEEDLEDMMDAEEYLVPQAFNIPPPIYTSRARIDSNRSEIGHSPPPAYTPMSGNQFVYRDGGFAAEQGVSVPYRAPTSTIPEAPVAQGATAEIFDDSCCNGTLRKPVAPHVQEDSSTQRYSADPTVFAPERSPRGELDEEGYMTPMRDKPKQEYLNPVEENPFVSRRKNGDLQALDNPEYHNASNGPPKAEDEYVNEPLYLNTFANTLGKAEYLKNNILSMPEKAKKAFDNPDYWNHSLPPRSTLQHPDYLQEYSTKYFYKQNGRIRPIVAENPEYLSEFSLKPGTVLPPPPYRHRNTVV
Chain of RET(V804M) (P07949 whole entry V804M): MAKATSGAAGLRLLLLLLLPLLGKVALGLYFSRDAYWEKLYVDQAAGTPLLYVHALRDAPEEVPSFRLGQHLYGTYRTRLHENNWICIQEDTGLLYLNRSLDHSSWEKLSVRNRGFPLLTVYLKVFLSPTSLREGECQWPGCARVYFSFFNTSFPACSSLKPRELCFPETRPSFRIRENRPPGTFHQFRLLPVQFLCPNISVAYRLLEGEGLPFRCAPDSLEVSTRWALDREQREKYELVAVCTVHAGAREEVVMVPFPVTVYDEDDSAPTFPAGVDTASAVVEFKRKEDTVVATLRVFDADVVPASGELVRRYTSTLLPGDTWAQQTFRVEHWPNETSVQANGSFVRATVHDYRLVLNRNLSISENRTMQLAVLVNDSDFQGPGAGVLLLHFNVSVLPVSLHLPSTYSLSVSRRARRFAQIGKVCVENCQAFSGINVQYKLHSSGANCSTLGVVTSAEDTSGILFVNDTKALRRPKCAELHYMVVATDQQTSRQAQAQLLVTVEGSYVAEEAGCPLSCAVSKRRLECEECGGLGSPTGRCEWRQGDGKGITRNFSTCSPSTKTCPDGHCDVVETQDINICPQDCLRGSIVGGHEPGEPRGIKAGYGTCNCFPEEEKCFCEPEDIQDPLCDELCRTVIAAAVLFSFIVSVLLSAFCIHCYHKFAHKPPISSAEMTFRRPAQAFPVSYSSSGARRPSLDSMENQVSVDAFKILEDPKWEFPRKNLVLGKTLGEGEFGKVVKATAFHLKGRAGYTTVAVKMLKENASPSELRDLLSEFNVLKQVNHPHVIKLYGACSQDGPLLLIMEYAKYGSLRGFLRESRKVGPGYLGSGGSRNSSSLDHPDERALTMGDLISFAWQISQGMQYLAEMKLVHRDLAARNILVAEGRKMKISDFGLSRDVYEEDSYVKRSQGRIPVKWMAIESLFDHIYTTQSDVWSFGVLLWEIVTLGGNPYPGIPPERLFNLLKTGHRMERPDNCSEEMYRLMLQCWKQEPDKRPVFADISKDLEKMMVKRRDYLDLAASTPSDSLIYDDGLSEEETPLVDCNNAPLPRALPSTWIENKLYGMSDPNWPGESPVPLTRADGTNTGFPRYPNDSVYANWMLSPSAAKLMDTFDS
Chain of TGFBR2 (P37173 whole entry): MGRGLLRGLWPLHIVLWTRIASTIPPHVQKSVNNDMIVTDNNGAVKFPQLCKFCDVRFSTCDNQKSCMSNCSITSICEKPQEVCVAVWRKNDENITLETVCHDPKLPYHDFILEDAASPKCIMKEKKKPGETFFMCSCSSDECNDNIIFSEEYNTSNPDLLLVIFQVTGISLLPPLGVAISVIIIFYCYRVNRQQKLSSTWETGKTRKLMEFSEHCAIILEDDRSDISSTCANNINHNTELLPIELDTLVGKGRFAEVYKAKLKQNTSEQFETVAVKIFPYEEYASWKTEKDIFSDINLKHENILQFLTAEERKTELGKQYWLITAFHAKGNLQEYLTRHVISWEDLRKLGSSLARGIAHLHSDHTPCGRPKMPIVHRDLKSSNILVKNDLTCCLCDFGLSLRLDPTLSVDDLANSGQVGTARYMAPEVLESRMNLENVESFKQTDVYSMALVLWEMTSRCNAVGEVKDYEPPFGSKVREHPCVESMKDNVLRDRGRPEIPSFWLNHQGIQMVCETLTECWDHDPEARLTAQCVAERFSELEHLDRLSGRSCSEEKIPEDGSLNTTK
Chain of PIP5K1C (O60331 whole entry): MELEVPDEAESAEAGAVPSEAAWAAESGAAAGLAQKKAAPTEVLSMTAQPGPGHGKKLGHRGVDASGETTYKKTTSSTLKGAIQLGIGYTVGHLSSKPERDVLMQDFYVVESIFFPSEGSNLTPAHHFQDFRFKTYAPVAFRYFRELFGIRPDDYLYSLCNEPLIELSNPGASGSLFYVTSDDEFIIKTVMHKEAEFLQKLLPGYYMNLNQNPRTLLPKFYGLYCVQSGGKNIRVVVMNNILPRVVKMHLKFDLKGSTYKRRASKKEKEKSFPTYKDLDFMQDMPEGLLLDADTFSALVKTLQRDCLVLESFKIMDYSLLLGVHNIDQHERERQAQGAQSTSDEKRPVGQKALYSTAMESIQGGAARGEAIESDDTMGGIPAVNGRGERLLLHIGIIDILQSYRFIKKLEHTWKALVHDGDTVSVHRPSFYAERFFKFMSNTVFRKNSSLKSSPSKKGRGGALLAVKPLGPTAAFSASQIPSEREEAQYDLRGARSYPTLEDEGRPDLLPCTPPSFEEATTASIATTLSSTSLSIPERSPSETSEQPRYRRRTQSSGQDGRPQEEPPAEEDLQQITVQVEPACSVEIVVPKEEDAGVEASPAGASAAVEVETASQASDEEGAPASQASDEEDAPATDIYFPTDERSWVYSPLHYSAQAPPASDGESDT
T9 sequence (Q02779 whole entry): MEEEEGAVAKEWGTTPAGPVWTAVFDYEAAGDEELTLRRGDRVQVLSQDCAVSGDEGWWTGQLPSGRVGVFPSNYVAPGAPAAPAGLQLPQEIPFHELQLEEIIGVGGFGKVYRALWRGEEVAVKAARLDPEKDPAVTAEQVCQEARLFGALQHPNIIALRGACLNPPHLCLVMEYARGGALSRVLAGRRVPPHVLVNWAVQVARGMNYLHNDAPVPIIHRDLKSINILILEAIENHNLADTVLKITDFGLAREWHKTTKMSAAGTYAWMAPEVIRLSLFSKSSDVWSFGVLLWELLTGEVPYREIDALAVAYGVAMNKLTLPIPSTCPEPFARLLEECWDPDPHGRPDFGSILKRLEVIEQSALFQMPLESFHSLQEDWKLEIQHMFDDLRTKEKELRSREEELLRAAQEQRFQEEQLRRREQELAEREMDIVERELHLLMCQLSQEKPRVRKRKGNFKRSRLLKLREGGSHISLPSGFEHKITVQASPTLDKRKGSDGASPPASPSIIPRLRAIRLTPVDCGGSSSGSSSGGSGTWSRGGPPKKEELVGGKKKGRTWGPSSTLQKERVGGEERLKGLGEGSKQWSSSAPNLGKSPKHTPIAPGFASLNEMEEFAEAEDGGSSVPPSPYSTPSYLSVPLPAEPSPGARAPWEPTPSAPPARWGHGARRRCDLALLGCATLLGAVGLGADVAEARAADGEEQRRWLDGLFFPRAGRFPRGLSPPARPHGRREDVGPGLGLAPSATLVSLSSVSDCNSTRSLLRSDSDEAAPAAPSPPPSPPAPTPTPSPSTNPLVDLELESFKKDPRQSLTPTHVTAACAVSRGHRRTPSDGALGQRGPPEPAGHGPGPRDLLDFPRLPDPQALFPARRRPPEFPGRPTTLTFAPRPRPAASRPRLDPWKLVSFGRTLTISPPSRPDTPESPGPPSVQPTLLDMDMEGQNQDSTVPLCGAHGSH
Chain of MAPKAPK5 (Q8IW41 whole entry): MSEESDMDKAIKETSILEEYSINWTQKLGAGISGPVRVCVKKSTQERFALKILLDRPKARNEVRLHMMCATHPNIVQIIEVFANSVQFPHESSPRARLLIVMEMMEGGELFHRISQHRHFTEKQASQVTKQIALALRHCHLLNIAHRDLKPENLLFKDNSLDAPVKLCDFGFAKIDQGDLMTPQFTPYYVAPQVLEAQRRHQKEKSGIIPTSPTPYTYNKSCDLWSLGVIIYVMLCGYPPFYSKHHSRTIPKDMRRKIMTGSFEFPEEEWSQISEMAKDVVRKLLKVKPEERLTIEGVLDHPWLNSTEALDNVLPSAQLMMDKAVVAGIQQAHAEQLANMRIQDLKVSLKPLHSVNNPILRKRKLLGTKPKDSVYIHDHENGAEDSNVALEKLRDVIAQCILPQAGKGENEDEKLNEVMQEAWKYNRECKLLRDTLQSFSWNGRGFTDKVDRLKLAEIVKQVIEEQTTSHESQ

As to `CNS(=O)(=O)c1ccc(N(C)C)c(Nc2ncnc3cc(OC)c(OC)cc23)c1` [compound 7, 3-((6,7-dimethoxyquinazolin-4-yl)amino)-4-(dimethylamino)-N-methylbenzenesulfonamide], the inhibition at 1 µM at LKB1 amounted to 0%; on RET(V804M), 0%; on GRK3, 38%; at CDC2L2, 0%; at CAMKK2, 0%; at ULK1 it was 18%. The inhibition at 1 µM in assay [1] worked out at 0%; on TESK1, 0%; on NIK, 0%; on MAPKAPK5, 27%; on PIP5K1C, 33%; at PRKCE, 0%. Besides, the inhibition at 1 µM was 0% at TGFBR2; 0% at ERBB4; 23% at LZK; 10% at ALK; 20% in [2]; 0% on CAMK1G. The inhibition at 1 µM on HIPK4 worked out at 13%; in assay [3], 0%; at MST1 it was 21%; on MLK2, 15%; on FLT3(ITD,D835V), 34%; at ADCK3 it was 50%.

What is called inhibition is the drop in the measured response relative to a control, in per cent.

The values are drawn from PMC7180948, “New Insights into 4-Anilinoquinazolines as Inhibitors of Cardiac Troponin I–Interacting Kinase (TNNi3K)” (Molecules, 2020).
